Measurements reported in US10301280B2 (Plexxikon Inc., priority 2012, dated 2019).

Legend:
[1] = molecular target: c-kit mutant D816V (Homo sapiens (Human), UniProt P10721, D816V/DEL694-753); assay: c-Kit mutant D816V biochemical assay (AlphaScreen); details: c-kit D816V biochemical inhibitory activity
Method in brief: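 His-tagged c-Kit D816V kinase domain (551-934, Δ694-753, E. coli) phosphorylating 30 nM biotin-(E4Y)10 at 10 μM ATP in HEPES pH 7.2 with Mg/Mn, 5% DMSO, 30 min at room temperature. PY20-acceptor/streptavidin-donor AlphaScreen detection after EDTA stop. IC50 from 8-point 1:3 titration.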

[2] = system: BaF3-FL KIT D816V or BaF3-FL KIT V560G/D816V cell line; assay: Cell-based assays of c-Kit mutant kinase activity (cell growth, ATPlite); details: at least one of the c-kit cell assays of Example 26
Method in brief: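 BaF3 cells dependent on full-length human KIT (D816V or V560G/D816V) seeded at 1×10^4 cells/well in RPMI with 10% FBS. Eight-point 1:3 dilutions from 10 μM top final (0.2% DMSO), 3 days at 37° C., 5% CO2. ATPlite luminescence gave IC50.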

Sequence of c-kit mutant D816V (P10721 other isoform, or with tags, fused parts or gaps D816V/del 694-753): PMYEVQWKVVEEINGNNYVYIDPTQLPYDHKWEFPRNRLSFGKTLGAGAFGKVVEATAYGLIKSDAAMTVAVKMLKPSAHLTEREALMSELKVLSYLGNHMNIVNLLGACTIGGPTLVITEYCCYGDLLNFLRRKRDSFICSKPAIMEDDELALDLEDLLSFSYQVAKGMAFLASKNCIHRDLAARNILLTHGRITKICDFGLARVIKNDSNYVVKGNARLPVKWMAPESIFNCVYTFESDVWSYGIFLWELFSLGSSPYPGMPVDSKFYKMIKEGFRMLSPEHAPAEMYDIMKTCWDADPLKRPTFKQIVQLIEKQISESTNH

| Compound | IC50 [1] | IC50 [2] |
| --- | --- | --- |
| Cc1n[nH]c(C(=O)Nc2cnc3[nH]c(-c4ccnc(N5CCN(S(C)(=O)=O)CC5)c4)cc3c2)c1C [P-2186, 3,4-dimethyl-N-[2-[2-(4-methylsulfonylpiperazin-1-yl)-4-pyridyl]-1H-pyrrolo[2,3-b]pyridin-5-yl]-1H-pyrazole-5-carboxamide] | 0.0001 to 1 µM | < 10000 nM |
| Cc1n[nH]c(C(=O)Nc2cnc3[nH]c(-c4ccccc4C(F)(F)F)cc3c2)c1C [P-2180, 3,4-dimethyl-N-[2-[2-(trifluoromethyl)phenyl]-1H-pyrrolo[2,3-b]pyridin-5-yl]-1H-pyrazole-5-carboxamide] | 0.0001 to 1 µM | < 10000 nM |
| CNC(=O)c1cccc(Nc2ncc(NC(=O)c3[nH]nc(C)c3C)cn2)c1 [P-2054, 3,4-dimethyl-N-[2-[3-(methylcarbamoyl)anilino]pyrimidin-5-yl]-1H-pyrazole-5-carboxamide] | 0.0001 to 1 µM | < 10000 nM |
| Cc1cc(C(=O)Nc2cnc3[nH]c(C4=CCN(C(=O)C5CC5)CC4)cc3c2)n[nH]1 [P-2042, N-[2-[1-(cyclopropanecarbonyl)-3,6-dihydro-2H-pyridin-4-yl]-1H-pyrrolo[2,3-b]pyridin-5-yl]-5-methyl-1H-pyrazole-3-carboxamide] | 0.0001 to 1 µM | < 10000 nM |
| Cc1n[nH]c(C(=O)Nc2cnc(Nc3cccc(NS(=O)(=O)c4ccccc4)c3)nc2)c1C [P-2053, N-[2-[3-(benzenesulfonamido)anilino]pyrimidin-5-yl]-3,4-dimethyl-1H-pyrazole-5-carboxamide] | 0.0001 to 1 µM | < 10000 nM |
| Cc1cc(C(=O)Nc2cnc3[nH]c(C4=CCN(C(=O)N5CCOCC5)CC4)cc3c2)n[nH]1 [P-2031, 5-methyl-N-[2-[1-(morpholine-4-carbonyl)-3,6-dihydro-2H-pyridin-4-yl]-1H-pyrrolo[2,3-b]pyridin-5-yl]-1H-pyrazole-3-carboxamide] | 0.0001 to 1 µM | < 10000 nM |
| Cc1nn(C2CN(C(=O)OC(C)(C)C)C2)cc1-c1cc2cc(NC(=O)c3[nH]nc(C)c3C)cnc2[nH]1 [P-2285, tert-butyl 3-[4-[5-[(3,4-dimethyl-1H-pyrazole-5-carbonyl)amino]-1H-pyrrolo[2,3-b]pyridin-2-yl]-3-methyl-pyrazol-1-yl]azetidine-1-carboxylate] | 0.0001 to 1 µM | < 10000 nM |
| CCOC(=O)Nc1cccc(Nc2ncc(NC(=O)c3[nH]nc(C)c3C)cn2)c1 [P-2055, ethyl N-[3-[[5-[(3,4-dimethyl-1H-pyrazole-5-carbonyl)amino]pyrimidin-2-yl]amino]phenyl]carbamate] | 0.0001 to 1 µM | < 10000 nM |
| O=C(Nc1cnc2[nH]c(-c3ccc(F)cc3)cc2c1)c1n[nH]c2ccccc12 [P-2046, N-[2-(4-fluorophenyl)-1H-pyrrolo[2,3-b]pyridin-5-yl]-1H-indazole-3-carboxamide] | 0.0001 to 1 µM | < 10000 nM |
| Cc1n[nH]c(C(=O)Nc2cnc3[nH]c(-c4ccc(F)c(-c5nn[nH]n5)c4)cc3c2)c1C [P-2174, N-[2-[4-fluoro-3-(2H-tetrazol-5-yl)phenyl]-1H-pyrrolo[2,3-b]pyridin-5-yl]-3,4-dimethyl-1H-pyrazole-5-carboxamide] | 0.0001 to 1 µM | < 10000 nM |
| Cc1n[nH]c(C(=O)Nc2cnc3[nH]c(C4=CCOCC4)cc3c2)c1C [P-2271, N-[2-(3,6-dihydro-2H-pyran-4-yl)-1H-pyrrolo[2,3-b]pyridin-5-yl]-3,4-dimethyl-1H-pyrazole-5-carboxamide] | 0.0001 to 1 µM | < 10000 nM |
| CCc1ccc(-c2cc3cc(NC(=O)c4[nH]nc(C)c4C)cnc3[nH]2)cn1 [P-2178, N-[2-(6-ethyl-3-pyridyl)-1H-pyrrolo[2,3-b]pyridin-5-yl]-3,4-dimethyl-1H-pyrazole-5-carboxamide] | 0.0001 to 1 µM | < 10000 nM |
| Cc1n[nH]c(C(=O)Nc2cnc3[nH]c(-c4cnc(N5CCN(C)CC5)nc4)cc3c2)c1C [P-2160, 3,4-dimethyl-N-[2-[2-(4-methylpiperazin-1-yl)pyrimidin-5-yl]-1H-pyrrolo[2,3-b]pyridin-5-yl]-1H-pyrazole-5-carboxamide] | 0.0001 to 1 µM | < 10000 nM |
| Cc1n[nH]c(C(=O)Nc2cnc3[nH]c(-c4c(C)n[nH]c4C)cc3c2)c1C [P-2167, N-[2-(3,5-dimethyl-1H-pyrazol-4-yl)-1H-pyrrolo[2,3-b]pyridin-5-yl]-3,4-dimethyl-1H-pyrazole-5-carboxamide] | 0.0001 to 1 µM | < 10000 nM |
| COc1cncc(-c2cc3cc(NC(=O)c4[nH]nc(C)c4C)cnc3[nH]2)c1 [P-2183, N-[2-(5-methoxy-3-pyridyl)-1H-pyrrolo[2,3-b]pyridin-5-yl]-3,4-dimethyl-1H-pyrazole-5-carboxamide] | 0.0001 to 1 µM | < 10000 nM |
